Measured values published in PubChem BioAssay (NCI).
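48-hour exposure; five concentrations; linearly interpolated endpoints. GI50 marks 50% less growth. Definition used: TGI = concentration required for complete inhibition of growth.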

Legend:
Assay in all cases: growth of human tumour cells (NCI), 48 h
786-0 renal = test system: 786-0 renal
A498 renal = test system: A498 renal
A549 NSCLC = test system: A549 NSCLC
ACHN renal = test system: ACHN renal
BT-549 breast = test system: BT-549 breast
CAKI-1 renal = test system: CAKI-1 renal
CCRF-CEM leukemia = test system: CCRF-CEM leukemia
COLO 205 colon = test system: COLO 205 colon
DU-145 prostate = test system: DU-145 prostate
HCC-2998 colon = test system: HCC-2998 colon
HL-60(TB) leukemia = test system: HL-60(TB) leukemia
HOP-62 NSCLC = test system: HOP-62 NSCLC
HOP-92 NSCLC = test system: HOP-92 NSCLC
HS 578T breast = test system: HS 578T breast
HT29 colon = test system: HT29 colon
IGROV1 ovarian = test system: IGROV1 ovarian
K-562 leukemia = test system: K-562 leukemia
KM12 colon = test system: KM12 colon
LOX IMVI melanoma = test system: LOX IMVI melanoma
M14 melanoma = test system: M14 melanoma
MALME-3M melanoma = test system: MALME-3M melanoma
MCF7 breast = test system: MCF7 breast
MDA-MB-231 breast = test system: MDA-MB-231 breast
MDA-MB-435 = test system: MDA-MB-435
MOLT-4 leukemia = test system: MOLT-4 leukemia
NCI-H226 lung = test system: NCI-H226 lung
NCI-H23 lung = test system: NCI-H23 lung
NCI-H460 lung = test system: NCI-H460 lung
NCI-H522 lung = test system: NCI-H522 lung
NCI/ADR-RES ovarian = test system: NCI/ADR-RES ovarian
OVCAR-3 ovarian = test system: OVCAR-3 ovarian
OVCAR-4 ovarian = test system: OVCAR-4 ovarian
OVCAR-5 ovarian = test system: OVCAR-5 ovarian
OVCAR-8 ovarian = test system: OVCAR-8 ovarian
PC-3 prostate = test system: PC-3 prostate
RPMI-8226 leukemia = test system: RPMI-8226 leukemia
SF-268 CNS = test system: SF-268 CNS
SF-295 CNS = test system: SF-295 CNS
SF-539 CNS = test system: SF-539 CNS
SK-MEL-2 melanoma = test system: SK-MEL-2 melanoma
SK-MEL-28 melanoma = test system: SK-MEL-28 melanoma
SK-MEL-5 melanoma = test system: SK-MEL-5 melanoma
SK-OV-3 ovarian = test system: SK-OV-3 ovarian
SN12C renal = test system: SN12C renal
SNB-19 CNS = test system: SNB-19 CNS
SNB-75 CNS = test system: SNB-75 CNS
SR leukemia = test system: SR leukemia
SW-620 colon = test system: SW-620 colon
T-47D breast = test system: T-47D breast
TK-10 renal = test system: TK-10 renal
U251 CNS = test system: U251 CNS
UACC-257 melanoma = test system: UACC-257 melanoma
UACC-62 melanoma = test system: UACC-62 melanoma
UO-31 renal = test system: UO-31 renal

COc1ccc2c(c1)O/C(=C\c1ncc([N+](=O)[O-])n1C)C2=O
GI50 (786-0 renal): 805 nM
TGI (786-0 renal): 3.89 µM
GI50 (A498 renal): 1200 nM
TGI (A498 renal): 2680 nM
GI50 (A549 NSCLC): 561 nM
TGI (A549 NSCLC): 4.54 µM
GI50 (ACHN renal): 158 nM
TGI (ACHN renal): 495 nM
GI50 (BT-549 breast): 684 nM
TGI (BT-549 breast): 2940 nM
GI50 (CAKI-1 renal): 202 nM
TGI (CAKI-1 renal): 544 nM
GI50 (CCRF-CEM leukemia): 264 nM
TGI (CCRF-CEM leukemia): 2020 nM
GI50 (COLO 205 colon): 363 nM
TGI (COLO 205 colon): 2240 nM
GI50 (DU-145 prostate): 285 nM
TGI (DU-145 prostate): 794 nM
GI50 (HCC-2998 colon): 899 nM
TGI (HCC-2998 colon): 4.19 µM
GI50 (HL-60(TB) leukemia): 331 nM
GI50 (HOP-62 NSCLC): 1100 nM
TGI (HOP-62 NSCLC): 4.18 µM
GI50 (HOP-92 NSCLC): 555 nM
TGI (HOP-92 NSCLC): 4.05 µM
GI50 (HS 578T breast): 641 nM
TGI (HS 578T breast): > 21.9 µM
GI50 (HT29 colon): 291 nM
TGI (HT29 colon): 1390 nM
GI50 (IGROV1 ovarian): 558 nM
TGI (IGROV1 ovarian): 9.86 µM
GI50 (K-562 leukemia): 414 nM
GI50 (KM12 colon): 776 nM
TGI (KM12 colon): 2810 nM
GI50 (LOX IMVI melanoma): 256 nM
TGI (LOX IMVI melanoma): 889 nM
GI50 (M14 melanoma): 363 nM
TGI (M14 melanoma): 1530 nM
GI50 (MALME-3M melanoma): 379 nM
TGI (MALME-3M melanoma): 1700 nM
GI50 (MCF7 breast): 495 nM
TGI (MCF7 breast): 9.37 µM
GI50 (MDA-MB-231 breast): 256 nM
TGI (MDA-MB-231 breast): 1380 nM
GI50 (MDA-MB-435): 224 nM
TGI (MDA-MB-435): 735 nM
GI50 (MOLT-4 leukemia): 45.3 nM
GI50 (NCI-H226 lung): 1430 nM
TGI (NCI-H226 lung): 4.27 µM
GI50 (NCI-H23 lung): 257 nM
TGI (NCI-H23 lung): 1320 nM
GI50 (NCI-H460 lung): 201 nM
TGI (NCI-H460 lung): 619 nM
GI50 (NCI-H522 lung): 266 nM
TGI (NCI-H522 lung): 927 nM
GI50 (NCI/ADR-RES ovarian): 584 nM
TGI (NCI/ADR-RES ovarian): 9.51 µM
GI50 (OVCAR-3 ovarian): 376 nM
TGI (OVCAR-3 ovarian): 1880 nM
GI50 (OVCAR-4 ovarian): 2520 nM
TGI (OVCAR-4 ovarian): > 100 µM
GI50 (OVCAR-5 ovarian): 1870 nM
TGI (OVCAR-5 ovarian): 6.39 µM
GI50 (OVCAR-8 ovarian): 245 nM
TGI (OVCAR-8 ovarian): 1940 nM
GI50 (PC-3 prostate): 2240 nM
TGI (PC-3 prostate): > 29.2 µM
GI50 (RPMI-8226 leukemia): 1340 nM
TGI (RPMI-8226 leukemia): 5.75 µM
GI50 (SF-268 CNS): 268 nM
TGI (SF-268 CNS): 1140 nM
GI50 (SF-295 CNS): 1400 nM
TGI (SF-295 CNS): 5.31 µM
GI50 (SF-539 CNS): 1270 nM
TGI (SF-539 CNS): 3.2 µM
GI50 (SK-MEL-2 melanoma): 1130 nM
TGI (SK-MEL-2 melanoma): 3.7 µM
GI50 (SK-MEL-28 melanoma): 371 nM
TGI (SK-MEL-28 melanoma): 2550 nM
GI50 (SK-MEL-5 melanoma): 246 nM
TGI (SK-MEL-5 melanoma): 837 nM
GI50 (SK-OV-3 ovarian): 1560 nM
TGI (SK-OV-3 ovarian): 6.86 µM
GI50 (SN12C renal): 472 nM
TGI (SN12C renal): 2090 nM
GI50 (SNB-19 CNS): 1180 nM
TGI (SNB-19 CNS): 6.26 µM
GI50 (SNB-75 CNS): 974 nM
TGI (SNB-75 CNS): 3.78 µM
GI50 (SR leukemia): 29.4 nM
GI50 (SW-620 colon): 178 nM
TGI (SW-620 colon): 1310 nM
GI50 (T-47D breast): 5.46 µM
TGI (T-47D breast): > 100 µM
GI50 (TK-10 renal): 1260 nM
TGI (TK-10 renal): > 20 µM
GI50 (U251 CNS): 812 nM
TGI (U251 CNS): 3.05 µM
GI50 (UACC-257 melanoma): 590 nM
TGI (UACC-257 melanoma): 2160 nM
GI50 (UACC-62 melanoma): 848 nM
TGI (UACC-62 melanoma): 2410 nM
GI50 (UO-31 renal): 334 nM
TGI (UO-31 renal): 1890 nM
